Among the data in US9040530B2, “1,2,4-triazine-6-carboxamide kinase inhibitors” (Portola Pharmaceuticals, Inc., priority 2012, dated 2015) are IC50 values, retold here.

pIC50: −log10 of the molar value.

For this experiment, the target named is T1, full length active recombinant SYK enzyme (Homo sapiens, UniProt P43405).
T1 construct: full length active recombinant SYK enzyme (Millipore, Calif.); purchased Millipore
The experiment in a line: Inhibition of Syk tyrosine phosphorylation activity (LANCE TR-FRET kinase assay). The class given is biochemical. The conditions noted are these: 1 nM active SYK enzyme, 550 nM SYK-substrate, 100 μM ATP, 1 hour at room temperature. How it is done: The in vitro and in vivo human Syk activities of the inventive compounds can be determined by various procedures known in the art, such as a test for their ability to inhibit the activity of human plasma Syk.
Inhibition of Syk Tyrosine Phosphorylation Activity
SYK tyrosine phosphorylation activity is measured using the LANCE™ Technology developed by Perkin Elmer Life and Analytical Sciences (Boston, Mass.). LANCE™ refers to homogeneous time resolved fluorometry applications using techniques such as time-resolved fluorescence resonance energy transfer assay (TR-FRET) (see generally for procedures in Perkin Elmer Application Note—How to Optimize a Tyrosine Kinase Assay Using Time Resolved Fluorescence-Based LANCE Detection, wwww.perkinelmer.com/lifesciences). The assay principle involves detection of a phosphorylated substrate using energy transfer from a phosphospecific europium-labeled antibody to streptavidin-allophycocyanin as an acceptor.
Molecules are reconstituted in 30% DMSO and serially diluted 1:3 with the final dilution containing DMSO in the absence of the candidate molecule. The final DMSO concentration in the assay is 3%. Kinase assays are performed as a two part reaction. […] The second reaction involves termination of the kinase reaction and the simultaneous addition of the detection reagents-europium-labeled anti-phosphotyrosine reagent (Eu-W1024-PY100, Perkin Elmer, Boston, Mass.) and Streptavidin-Allophycocyanin detection reagent (SA-APC, Prozyme, CA). The kinase reaction is performed in a black U-bottom 96-well microtitre plate. […] The reaction is allowed to proceed for 1 hour at room temperature. The quench buffer contains 100 mM Tris pH 7.5, 300 mM […], 20 mM EDTA, 0.02% Brij35, and 0.5% BSA. The detection reagents are added to the reaction mixture at the following dilutions-1:500 for Eu-W1024-PY100 and 1:250 for SA-APC. The kinase reaction is terminated by the addition of 50 μL quench buffer containing the detection reagents. The detection is allowed to proceed for 1 hr at room temperature. Detection of the phosphorlated substrate in the absence and presence of inhibitors is measured in the TR-FRET instrument, Analyst HT (Molecular Probes, Sunnyvale, Calif.) and the condition for measurements are set up using CriterionHost Release 2.0 (Molecular Probes, Sunnyvale, Calif.). […] IC50s were derived by non-linear regression analysis.
(In general: In TR-FRET formats the signal depends on donor and acceptor labels being close together.)
As for `Cc1ccc(Nc2nc(N[C@@H]3CCCC(F)(F)[C@@H]3N)nnc2C(N)=O)cc1Cl` [Example 219, 3-(((1R,2R)-2-amino-3,3-difluorocyclohexyl)amino)-5-((3-chloro-4-methylphenyl)amino)-1,2,4-triazine-6-carboxamide], the pIC50 (as a rule, −log10 of the IC50, conventionally taken in molar units) was 7.00 to 8.00.

Regarding `NC(=O)c1nnc(N[C@@H]2CCCC(F)(F)[C@@H]2N)nc1Nc1cccc(C(F)(F)F)c1` [Example 238, 3-(((1R,2R)-2-amino-3,3-difluorocyclohexyl)amino)-5-((3-(trifluoromethyl)phenyl)amino)-1,2,4-triazine-6-carboxamide], the negative logarithm of the IC50 (pIC50) is less than 6.00.

On to `NC(=O)c1nnc(N[C@@H]2CCOC[C@@H]2N)nc1Nc1ccc(Cl)c(Cl)c1` [Example 244, 3-(((3R,4R)-3-aminotetrahydro-2H-pyran-4-yl)amino)-5-((3,4-dichlorophenyl)amino)-1,2,4-triazine-6-carboxamide], for which the pIC50 was 7.00 to 8.00.

As for `NC(=O)c1nnc(N[C@@H]2CCCC[C@@H]2N)nc1NC1CCc2ccccc2C1` (stereo partly drawn) [Example 206, 3-(((1R,2S)-2-aminocyclohexyl)amino)-5-((1,2,3,4-tetrahydronaphthalen-2-yl)amino)-1,2,4-triazine-6-carboxamide], the negative-log IC50 (pIC50) is 7.00 to 8.00.

On to `Cn1ccc2c(Nc3nc(NCC4CCC(=O)N4)nnc3C(N)=O)cccc21` (stereo not shown) [Example 89, 5-((1-methyl-1H-indol-4-yl)amino)-3-(((5-oxopyrrolidin-2-yl)methyl)amino)-1,2,4-triazine-6-carboxamide], for which the pIC50 is 6.00 to 7.00.

On to `Cc1cc(F)cc(Nc2nc(N[C@@H]3CCCC[C@@H]3N)nnc2C(N)=O)c1` [Example 22, 3-(((1R,2S)-2-aminocyclohexyl)amino)-5-((3-fluoro-5-methylphenyl)amino)-1,2,4-triazine-6-carboxamide], for which the pIC50 was 8.00 to 9.00.

As to `Cc1ccc(Nc2nc(N[C@@H]3CCOC[C@@H]3N)nnc2C(N)=O)cc1Cl` [Example 225, 3-(((3R,4R)-3-aminotetrahydro-2H-pyran-4-yl)amino)-5-((3-chloro-4-methylphenyl)amino)-1,2,4-triazine-6-carboxamide], the pIC50 is 8.00 to 9.00.

Turning to `CC[C@@H](Nc1nnc(C(N)=O)c(Nc2cccc(F)c2)n1)C(N)=O` [Example 195, (R)-3-((1-amino-1-oxobutan-2-yl)amino)-5-((3-fluorophenyl)amino)-1,2,4-triazine-6-carboxamide], the pIC50 was 7.00 to 8.00.

On to `CC(C)C[C@@H](Nc1nnc(C(N)=O)c(Nc2ccc3cc[nH]c3c2)n1)C(N)=O` [Example 103, (R)-5-((1H-indol-6-yl)amino)-3-((1-amino-4-methyl-1-oxopentan-2-yl)amino)-1,2,4-triazine-6-carboxamide], for which the negative logarithm of the IC50 (pIC50) was 8.00 to 9.00.

For the compound `Cn1ncc2c(Nc3nc(N[C@@H]4CCCC[C@@H]4N)nnc3C(N)=O)cccc21` [Example 105, 3-(((1R,2S)-2-aminocyclohexyl)amino)-5-((1-methyl-1H-indazol-4-yl)amino)-1,2,4-triazine-6-carboxamide], the pIC50 was 8.00 to 9.00.

As for `Cc1cccc(Nc2nc(N[C@@H]3CCCC[C@@H]3N)nnc2C(N)=O)c1` [Example 11, 3-(((1R,2S)-2-aminocyclohexyl)amino)-5-(m-tolylamino)-1,2,4-triazine-6-carboxamide], the pIC50 was greater than 9.00.

Turning to `NC(=O)c1nnc(N[C@@H]2CCCC[C@@H]2N)nc1Nc1cnc2cc(F)ccc2c1` [Example 158, 3-(((1R,2S)-2-aminocyclohexyl)amino)-5-((7-fluoroquinolin-3-yl)amino)-1,2,4-triazine-6-carboxamide], the pIC50 was 8.00 to 9.00.

Turning to `CC(C)[C@@H](Nc1nnc(C(N)=O)c(Nc2cccc3c2ccn3C)n1)C(N)=O` [Example 87, (R)-3-((1-amino-3-methyl-1-oxobutan-2-yl)amino)-5-((1-methyl-1H-indol-4-yl)amino)-1,2,4-triazine-6-carboxamide], the pIC50 is 7.00 to 8.00.

Turning to `N#Cc1cccc(Nc2nc(N[C@@H]3CCCC[C@@H]3N)nnc2C(N)=O)c1` [Example 72, 3-(((1R,2S)-2-aminocyclohexyl)amino)-5-((3-cyanophenyl)amino)-1,2,4-triazine-6-carboxamide], the pIC50 is 8.00 to 9.00.

`NC(=O)c1nnc(N[C@@H]2CCCC[C@@H]2N)nc1Nc1ccn2ccnc2c1` [Example 198, 3-(((1R,2S)-2-aminocyclohexyl)amino)-5-(imidazo[1,2-a]pyridin-7-ylamino)-1,2,4-triazine-6-carboxamide]: the pIC50 is 8.00 to 9.00.

With `NC(=O)c1nnc(N[C@H](CC2CC2)C(N)=O)nc1Nc1ccc(Cl)cc1` [Example 249, (R)-3-((1-amino-3-cyclopropyl-1-oxopropan-2-yl)amino)-5-((4-chlorophenyl)amino)-1,2,4-triazine-6-carboxamide], the pIC50 was 7.00 to 8.00.

For the compound `NC(=O)c1nnc(N[C@@H]2CCCC[C@@H]2N)nc1Nc1cccc(-n2cccn2)c1` [Example 6, 5-(3-(1H-pyrazol-1-yl)phenylamino)-3-((1R,2S)-2-aminocyclohexylamino)-1,2,4-triazine-6-carboxamide], the pIC50 was 8.00 to 9.00.

Take `COC[C@@H](Nc1nnc(C(N)=O)c(Nc2ccc(C)cc2)n1)C(N)=O` [Example 187, (R)-3-(1-amino-3-methoxy-1-oxopropan-2-ylamino)-5-(p-tolylamino)-1,2,4-triazine-6-carboxamide]: the negative-log IC50 (pIC50) was 6.00 to 7.00.

In the case of `NC(=O)c1nnc(N[C@@H]2CCCC[C@@H]2N)nc1Nc1cncs1` [Example 133, 3-(((1R,2S)-2-aminocyclohexyl)amino)-5-(thiazol-5-ylamino)-1,2,4-triazine-6-carboxamide], the pIC50 is 7.00 to 8.00.

In the case of `Cn1cc2ccc(Nc3nc(N[C@@H]4CCCC[C@@H]4N)nnc3C(N)=O)cc2n1` [Example 181, 3-(((1R,2S)-2-aminocyclohexyl)amino)-5-((2-methyl-2H-indazol-6-yl)amino)-1,2,4-triazine-6-carboxamide], the pIC50 is 8.00 to 9.00.

Turning to `NC(=O)c1nnc(N[C@@H]2CCOC[C@@H]2N)nc1Nc1cccc(-n2nccn2)c1` [Example 85, 5-((3-(2H-1,2,3-triazol-2-yl)phenyl)amino)-3-(((3R,4R)-3-aminotetrahydro-2H-pyran-4-yl)amino)-1,2,4-triazine-6-carboxamide], the pIC50 is 8.00 to 9.00.

On to `Cn1cc(Nc2nc(N[C@@H]3CCCC[C@@H]3N)nnc2C(N)=O)cn1` [Example 78, 3-(((1R,2S)-2-aminocyclohexyl)amino)-5-((1-methyl-1H-pyrazol-4-yl)amino)-1,2,4-triazine-6-carboxamide], for which the pIC50 is 6.00 to 7.00.

For `NC(=O)c1nnc(N[C@H](CC(F)F)C(N)=O)nc1Nc1ccc2ncccc2c1` [Example 150, (R)-3-((1-amino-4,4-difluoro-1-oxobutan-2-yl)amino)-5-(quinolin-6-ylamino)-1,2,4-triazine-6-carboxamide], the pIC50 is 8.00 to 9.00.

Take `CC[C@@H](Nc1nnc(C(N)=O)c(Nc2ccc3c(c2)CCC3)n1)C(N)=O` [Example 211, (R)-3-((1-amino-1-oxobutan-2-yl)amino)-5-((2,3-dihydro-1H-inden-5-yl)amino)-1,2,4-triazine-6-carboxamide]: the pIC50 was 8.00 to 9.00.

`Cc1cccc(Nc2nc(N[C@H](CC(C)C)C(N)=O)nnc2C(N)=O)c1` [Example 120, (R)-3-((1-amino-4-methyl-1-oxopentan-2-yl)amino)-5-(m-tolylamino)-1,2,4-triazine-6-carboxamide]: the pIC50 is 7.00 to 8.00.
